Results as given in US20200270309A1, “MALEIMIDE GROUP-MODIFIED ANGIOGENESIS INHIBITOR HM-1 AND USE THEREOF” (NANJING ANJI BIOLOGICAL TECHNOLOGY CO., LTD, priority 2017, published 2020).
Like-named read-outs stand apart in the source and are kept apart here. Peptide text beside a SMILES is read from it. * marks the point of attachment. Mal(CH2CH2O)6CH2CH2CO = O=C1C=CC(=O)N1CCOCCOCCOCCOCCOCCOCCC(=O)*; Hexanoyl(6-maleimido) = O=C1C=CC(=O)N1CCCCCC(=O)*; X41 = O=C1C=CC(=O)N1c1ccc(CCCCCCCCCCCCC(=O)*)cc1; Propanoyl(3-maleimido) = O=C1C=CC(=O)N1CCC(=O)*; X14 = O=C1C=CC(=O)N1CCOCCOCCOCCOCCOCCCCCCC(=O)*; X36 = O=C1C=CC(=O)N1c1ccc(CCCCCCCCCCCC(=O)*)cc1; X10 = O=C1C=CC(=O)N1CCOCCOCCOCCOCCCC(=O)*; X28 = O=C1C=CC(=O)N1CCOCCOCCOCCCCCCC(=O)*; X78 = O=C1C=CC(=O)N1c1ccc(CCCC(=O)*)cc1; X2 = O=C1C=CC(=O)N1CCOCCOCCCCCC(=O)*; X57 = O=C1C=CC(=O)N1CCCCCCCC(=O)*; X1 = O=C1C=CC(=O)N1CCOCCCC(=O)*

Assay: Half-lives and pharmacokinetic parameters of polypeptides vs HM-1
Set-up: AUC0-∞: concentration or dose not given beside the values
Details: in vivo
[1] = read-out: T1/2β (half-life) (converted)

C[C@H](NC(=O)[C@H](CCCNC(=N)N)NC(=O)[C@H](CC(=O)O)NC(=O)[C@H](CCC(=O)O)NC(=O)CNC(=O)[C@H](CCCNC(=N)N)NC(=O)CCN1C(=O)C=CC1=O)C(=O)NCC(=O)NCC(=O)NCC(=O)NCC(=O)N[C@@H](CCCNC(=N)N)C(=O)NCC(=O)N[C@@H](CC(=O)O)C(=O)O [P5] ({Propanoyl(3-maleimido)}-RGEDRAGGGGRGD-OH; C-terminus assumed)
AUC(0-inf): 29200 ± 7880 ng·h/mL
MRT inf: 52.4 ± 12.2 h
clearance: 0.57 mL/min/kg
half-life: 36.28 ± 0.25 h

C[C@H](NC(=O)CNC(=O)[C@H](CCCNC(=N)N)NC(=O)CCN1C(=O)C=CC1=O)C(=O)N[C@@H](CC(=O)O)C(=O)N[C@@H](CCCNC(=N)N)C(=O)N[C@@H](C)C(=O)NCC(=O)N[C@@H](CO)C(=O)N[C@@H](CO)C(=O)N[C@@H](CO)C(=O)N[C@@H](CO)C(=O)N[C@@H](CCCNC(=N)N)C(=O)NCC(=O)N[C@@H](CC(=O)O)C(=O)O [P13] ({Propanoyl(3-maleimido)}-RGADRAGSSSSRGD-OH; C-terminus assumed)
AUC(0-inf) (read-out: AUC0-∞): 31800 ± 8090 ng·h/mL
clearance (read-out: CL (converted)): 0.525 mL/min/kg
MRT inf (read-out: MRT0-∞): 56.9 ± 14.2 h
half-life [1]: 3944 ± 0.27 h

CC(C)[C@H](NC(=O)[C@H](C)NC(=O)CNC(=O)[C@H](CCCNC(=N)N)NC(=O)CCCCCN1C(=O)C=CC1=O)C(=O)N[C@@H](CC(=O)O)C(=O)N[C@@H](CCCNC(=N)N)C(=O)N[C@@H](C)C(=O)NCC(=O)NCC(=O)NCC(=O)NCC(=O)N[C@@H](CCCNC(=N)N)C(=O)NCC(=O)N[C@@H](CC(=O)O)C(=O)O [P10] ({Hexanoyl(6-maleimido)}-RGAVDRAGGGGRGD-OH; C-terminus assumed)
AUC(0-inf) (read-out: AUC0-∞): 24600 ± 7030 ng·h/mL
clearance (read-out: CL (converted)): 0.677 mL/min/kg
MRT inf (read-out: MRT0-∞): 44.1 ± 11 h
half-life [1]: 30.6 ± 0.31 h

C[C@H](NC(=O)CNC(=O)[C@H](CCCNC(=N)N)NC(=O)CCCc1ccc(N2C(=O)C=CC2=O)cc1)C(=O)N[C@@H](CC(=O)O)C(=O)N[C@@H](CCCNC(=N)N)C(=O)N[C@@H](C)C(=O)NCC(=O)NCC(=O)NCC(=O)NCC(=O)N[C@@H](CCCNC(=N)N)C(=O)NCC(=O)N[C@@H](CC(=O)O)C(=O)O [X39] (X78-RGADRAGGGGRGD-OH)
AUC(0-inf): 32800 ± 7110 ng·h/mL
MRT inf: 58.8 ± 13.1 h
clearance: 0.508 mL/min/kg
half-life (T1/2β (half-life)): 40.73 ± 0.28 h

C[C@H](NC(=O)CNC(=O)[C@H](CCCNC(=N)N)NC(=O)CCOCCOCCOCCOCCOCCOCCN1C(=O)C=CC1=O)C(=O)N[C@@H](CC(=O)O)C(=O)N[C@@H](CCCNC(=N)N)C(=O)N[C@@H](C)C(=O)NCC(=O)NCC(=O)NCC(=O)NCC(=O)N[C@@H](CCCNC(=N)N)C(=O)NCC(=O)N[C@@H](CC(=O)O)C(=O)O [X85] ({Mal(CH2CH2O)6CH2CH2CO}-RGADRAGGGGRGD-OH)
AUC(0-inf): 33100 ± 8520 ng·h/mL
MRT inf: 59.1 ± 10.4 h
clearance: 0.505 mL/min/kg
half-life (T1/2β (half-life)): 40.97 ± 0.26 h

CSCC[C@H](NC(=O)[C@H](Cc1c[nH]cn1)NC(=O)[C@H](CCC(N)=O)NC(=O)[C@H](CCCNC(=N)N)NC(=O)CCCCCN1C(=O)C=CC1=O)C(=O)N[C@@H](Cc1ccccc1)C(=O)N[C@@H](CO)C(=O)N[C@@H](Cc1c[nH]c2ccccc12)C(=O)N[C@H](C(=O)N[C@@H](CC(C)C)C(=O)N[C@@H](C)C(=O)N[C@@H](CCCNC(=N)N)C(=O)N[C@@H](CC(N)=O)C(=O)N[C@@H](CC(=O)O)C(=O)N[C@@H](CCC(N)=O)C(=O)N[C@@H](CCC(=O)O)C(=O)N[C@@H](CCC(=O)O)C(=O)N[C@@H](CCCNC(=N)N)C(=O)NCC(=O)N[C@@H](CC(=O)O)C(=O)O)C(C)C [P2] ({Hexanoyl(6-maleimido)}-RQHMFSWVLARNDQEERGD-OH; C-terminus assumed)
AUC0-∞: 0.0350 ± 0.0076 mg/L/h
half-life [1]: 35.48 ± 0.3 h

C[C@H](NC(=O)CNC(=O)[C@H](CCCNC(=N)N)NC(=O)CCCOCCOCCOCCOCCN1C(=O)C=CC1=O)C(=O)N[C@@H](CC(=O)O)C(=O)N[C@@H](CCCNC(=N)N)C(=O)N[C@@H](C)C(=O)NCC(=O)NCC(=O)NCC(=O)NCC(=O)N[C@@H](CCCNC(=N)N)C(=O)NCC(=O)N[C@@H](CC(=O)O)C(=O)O [X72] (X10-RGADRAGGGGRGD-OH)
AUC(0-inf): 33800 ± 7140 ng·h/mL
MRT inf: 60.5 ± 12.3 h
clearance: 0.493 mL/min/kg
half-life (T1/2β (half-life)): 41.92 ± 0.29 h

C[C@H](NC(=O)CNC(=O)[C@H](CCCNC(=N)N)NC(=O)CCCCCCCN1C(=O)C=CC1=O)C(=O)N[C@@H](CC(=O)O)C(=O)N[C@@H](CCCNC(=N)N)C(=O)N[C@@H](C)C(=O)NCC(=O)NCC(=O)NCC(=O)NCC(=O)N[C@@H](CCCNC(=N)N)C(=O)NCC(=O)N[C@@H](CC(=O)O)C(=O)O [X7] (X57-RGADRAGGGGRGD-OH)
AUC(0-inf): 34500 ± 6960 ng·h/mL
MRT inf: 61.8 ± 14.3 h
clearance: 0.485 mL/min/kg
half-life (T1/2β (half-life)): 42.83 ± 0.29 h

C[C@H](NC(=O)CNC(=O)[C@H](CCCNC(=N)N)NC(=O)CCCCCCCCCCCc1ccc(N2C(=O)C=CC2=O)cc1)C(=O)N[C@@H](CC(=O)O)C(=O)N[C@@H](CCCNC(=N)N)C(=O)N[C@@H](C)C(=O)NCC(=O)NCC(=O)NCC(=O)NCC(=O)N[C@@H](CCCNC(=N)N)C(=O)NCC(=O)N[C@@H](CC(=O)O)C(=O)O [X47] (X36-RGADRAGGGGRGD-OH)
AUC(0-inf): 33200 ± 7130 ng·h/mL
MRT inf: 59.4 ± 12 h
clearance: 0.502 mL/min/kg
half-life (T1/2β (half-life)): 41.19 ± 0.27 h

C[C@H](NC(=O)CNC(=O)[C@H](CCCNC(=N)N)NC(=O)CCCCCOCCOCCN1C(=O)C=CC1=O)C(=O)N[C@@H](CC(=O)O)C(=O)N[C@@H](CCCNC(=N)N)C(=O)N[C@@H](C)C(=O)NCC(=O)NCC(=O)NCC(=O)NCC(=O)N[C@@H](CCCNC(=N)N)C(=O)NCC(=O)N[C@@H](CC(=O)O)C(=O)O [X60] (X2-RGADRAGGGGRGD-OH)
AUC(0-inf): 30200 ± 7290 ng·h/mL
MRT inf: 54.1 ± 11.7 h
clearance: 0.552 mL/min/kg
half-life (T1/2β (half-life)): 37.51 ± 0.25 h

C[C@H](NC(=O)CNC(=O)[C@H](CCCNC(=N)N)NC(=O)CCCOCCN1C(=O)C=CC1=O)C(=O)N[C@@H](CC(=O)O)C(=O)N[C@@H](CCCNC(=N)N)C(=O)N[C@@H](C)C(=O)NCC(=O)NCC(=O)NCC(=O)NCC(=O)N[C@@H](CCCNC(=N)N)C(=O)NCC(=O)N[C@@H](CC(=O)O)C(=O)O [X51] (X1-RGADRAGGGGRGD-OH)
AUC(0-inf): 32500 ± 7310 ng·h/mL
MRT inf: 58.1 ± 9.42 h
clearance: 0.513 mL/min/kg
half-life (T1/2β (half-life)): 40.28 ± 0.24 h

C[C@H](NC(=O)CNC(=O)[C@H](CCCNC(=N)N)NC(=O)CCCCCCOCCOCCOCCN1C(=O)C=CC1=O)C(=O)N[C@@H](CC(=O)O)C(=O)N[C@@H](CCCNC(=N)N)C(=O)N[C@@H](C)C(=O)NCC(=O)NCC(=O)NCC(=O)NCC(=O)N[C@@H](CCCNC(=N)N)C(=O)NCC(=O)N[C@@H](CC(=O)O)C(=O)O [X68] (X28-RGADRAGGGGRGD-OH)
AUC(0-inf): 31800 ± 7920 ng·h/mL
MRT inf: 57 ± 10.3 h
clearance: 0.523 mL/min/kg
half-life (T1/2β (half-life)): 39.52 ± 0.34 h

C[C@H](NC(=O)CNC(=O)[C@H](CCCNC(=N)N)NC(=O)CCCCCCOCCOCCOCCOCCOCCN1C(=O)C=CC1=O)C(=O)N[C@@H](CC(=O)O)C(=O)N[C@@H](CCCNC(=N)N)C(=O)N[C@@H](C)C(=O)NCC(=O)NCC(=O)NCC(=O)NCC(=O)N[C@@H](CCCNC(=N)N)C(=O)NCC(=O)N[C@@H](CC(=O)O)C(=O)O [X82] (X14-RGADRAGGGGRGD-OH)
AUC(0-inf): 25700 ± 7220 ng·h/mL
MRT inf: 46 ± 13.6 h
clearance: 0.648 mL/min/kg
half-life (T1/2β (half-life)): 31.9 ± 0.35 h

C[C@H](NC(=O)CNC(=O)[C@H](CCCNC(=N)N)NC(=O)CCCCCCCCCCCCc1ccc(N2C(=O)C=CC2=O)cc1)C(=O)N[C@@H](CC(=O)O)C(=O)N[C@@H](CCCNC(=N)N)C(=O)N[C@@H](C)C(=O)NCC(=O)NCC(=O)NCC(=O)NCC(=O)N[C@@H](CCCNC(=N)N)C(=O)NCC(=O)N[C@@H](CC(=O)O)C(=O)O [X48] (X41-RGADRAGGGGRGD-OH)
AUC(0-inf): 29200 ± 7650 ng·h/mL
MRT inf: 52.9 ± 12.1 h
clearance: 0.565 mL/min/kg
half-life (T1/2β (half-life)): 36.64 ± 0.27 h

CC(C)[C@H](NC(=O)[C@H](C)NC(=O)CNC(=O)[C@H](CCCNC(=N)N)NC(=O)CCN1C(=O)C=CC1=O)C(=O)N[C@@H](CC(=O)O)C(=O)N[C@@H](CCCNC(=N)N)C(=O)N[C@@H](C)C(=O)NCC(=O)NCC(=O)NCC(=O)NCC(=O)N[C@@H](CCCNC(=N)N)C(=O)NCC(=O)N[C@@H](CC(=O)O)C(=O)O [P9] ({Propanoyl(3-maleimido)}-RGAVDRAGGGGRGD-OH; C-terminus assumed)
AUC(0-inf) (read-out: AUC0-∞): 27900 ± 6880 ng·h/mL
clearance (read-out: CL (converted)): 0.597 mL/min/kg
MRT inf (read-out: MRT0-∞): 50 ± 10.7 h
half-life [1]: 34.64 ± 0.3 h

C[C@H](NC(=O)[C@H](CCCNC(=N)N)NC(=O)[C@H](CC(=O)O)NC(=O)CNC(=O)[C@H](CCCNC(=N)N)NC(=O)CCCCCN1C(=O)C=CC1=O)C(=O)NCC(=O)NCC(=O)NCC(=O)NCC(=O)N[C@@H](CCCNC(=N)N)C(=O)NCC(=O)N[C@@H](CC(=O)O)C(=O)O [P8] ({Hexanoyl(6-maleimido)}-RGDRAGGGGRGD-OH; C-terminus assumed)
AUC(0-inf) (read-out: AUC0-∞): 31200 ± 8090 ng·h/mL
clearance (read-out: CL (converted)): 0.535 mL/min/kg
MRT inf (read-out: MRT0-∞): 55.8 ± 13.4 h
half-life [1]: 38.67 ± 0.27 h

C[C@H](NC(=O)CNC(=O)[C@H](CCCNC(=N)N)NC(=O)CCCCCN1C(=O)C=CC1=O)C(=O)N[C@@H](CC(=O)O)C(=O)N[C@@H](CCCNC(=N)N)C(=O)N[C@@H](C)C(=O)NCC(=O)N[C@@H](CO)C(=O)N[C@@H](CO)C(=O)N[C@@H](CO)C(=O)N[C@@H](CO)C(=O)N[C@@H](CCCNC(=N)N)C(=O)NCC(=O)N[C@@H](CC(=O)O)C(=O)O [P14] ({Hexanoyl(6-maleimido)}-RGADRAGSSSSRGD-OH; C-terminus assumed)
AUC(0-inf) (read-out: AUC0-∞): 32200 ± 7560 ng·h/mL
clearance (read-out: CL (converted)): 0.518 mL/min/kg
MRT inf (read-out: MRT0-∞): 57.5 ± 9.63 h
half-life [1]: 39.85 ± 0.31 h
